# Source: US20150148311A1, “NON-SYSTEMIC TGR5 AGONISTS” (Ardelyx, Inc., priority 2011, published 2015)
# What was measured:
# human TGR5 = target: T1, human TGR5 (Homo sapiens, UniProt Q8TDU6); experiment: Cell-based TGR5 assay, HEK293 cells stably expressing human TGR5, cAMP by HTRF; details: HEK293 cells stably expressing human TGR5, 30 min at 37 C, 0.05 nM to 10 μM, read-out: pEC50 Human TGR5 (converted)
# T1 construct: expressed in transfected cells
# T1 sequence (Q8TDU6 1-330): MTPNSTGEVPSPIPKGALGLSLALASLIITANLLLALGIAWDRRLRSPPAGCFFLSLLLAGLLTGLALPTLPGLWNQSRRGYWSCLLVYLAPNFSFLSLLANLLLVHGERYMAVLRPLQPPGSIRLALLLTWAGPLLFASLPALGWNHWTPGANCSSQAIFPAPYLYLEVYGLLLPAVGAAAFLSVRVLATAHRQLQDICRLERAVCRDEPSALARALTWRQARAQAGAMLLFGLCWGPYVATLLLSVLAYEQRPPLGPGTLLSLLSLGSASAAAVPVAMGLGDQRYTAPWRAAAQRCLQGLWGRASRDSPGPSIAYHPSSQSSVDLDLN
# Method: (§1) Two primary cell based screens were performed. The first utilized HEK293 cells stably transfected to heterologously express human TGR5. The second screen used the human caecum carcinoma cell line NCI-H716 which endogenously expresses human TGR5. In both assays, cells are treated with candidate TGR5 activators and assessed for the increased intercellular levels of cAMP.
# HEK293 cells were transfected with a vector that expresses a gene encoding human TGR5, and a stable cell line was isolated using drug selection following standard techniques. Cells were grown overnight at 37° C./5% CO2 prior to assay.
# (§2) TGR5-mediated cAMP generation was measured using a homogeneous time resolved fluorescence (HTRF) detection method (Cisbio). Test compounds were dissolved in DMSO to a final concentration of 10 mM. Serial 3-fold dilutions of the stock solution were made in DMSO, and these solutions were diluted 100-fold into Hanks Balanced Salt Solution supplemented with 10 mM HEPES pH 7.4 and 0.5 mM isobutyl methylxanthine (IBMX). Prior to assay, culture medium was replaced with fresh medium, and test compounds diluted in HBSS/HEPES/IBMX were added to the cells and incubated at 37° C. for 30 minutes.
# (§3) Following incubation with test compounds, cAMP was detected through the successive addition of cAMP labeled with the modified allophyocyanin dye d2 (cAMP-d2) and cryptate-labeled anti-cAMP in lysis buffer, and reading HTRF per the manufacturer's instructions. A standard curve was used to convert the raw HTRF data into [cAMP].
# [1] = target: T2, endogenously expressed TGR5 in NCI H716 (Homo sapiens, UniProt Q8TDU6); experiment: Cell-based TGR5 assay, NCI-H716 cells endogenously expressing human TGR5, cAMP by HTRF; details: 30 min at 37 C, 22 nM to 50 μM, read-out: pEC50 endogenously expressed TGR5 in NCI H716 (converted)
# T2 construct: human caecum carcinoma cell line NCI-H716 which endogenously expresses human TGR5; endogenous in cells; host or cells: NCI-H716
# T2 sequence (Q8TDU6 1-330): T1 sequence (Q8TDU6 1-330)
# Method: as §1, with “cAMP. […]” for “cAMP.”
# as §2, §3
EC50 (human TGR5) [µM],EC50 [1] [µM],Structure (SMILES)
0.126 to 1,1.26 to 50.1,"O=C(N1CCN(C2CC2)c2ccccc21)C1(OCc2cc(Cl)ccc2Cl)CNC1 [Example 50, (4-cyclopropyl-3,4-dihydroquinoxalin-1(2H)-yl)(3-(2,5-dichlorobenzyloxyl)azetidin-3-yl)methanone]"
0.126 to 1,1.26 to 50.1,"CN1CC(OCc2cc(Cl)ccc2Cl)(C(=O)N2CCN(C3CC3)c3ccccc32)C1 [Example 51, (4-cyclopropyl-3,4-dihydroquinoxalin-1(2H)-yl)(3-(2,5-dichlorobenzyloxy)-1-methylazetidin-3-yl)methanone]"
1.26 to 50.1,1.26 to 50.1,Cc1ccc(Cl)c(CN2CCC[C@H]2C(=O)N2CCN(C3CC3)c3ccccc32)c1F [Example 245]
< 0.1,1.26 to 50.1,"O=C(CCc1cc(Cl)c(CNC2(C(=O)N3CCN(C4CC4)c4ccccc43)CC2)cc1Cl)NCCOCCOCCNC(=O)CCc1cc(Cl)c(CNC2(C(=O)N3CCN(C4CC4)c4ccccc43)CC2)cc1Cl [Example 95, N,N′-(2,2′-(ethane-1,2-diylbis(oxy))bis(ethane-2,1-diyl))bis(3-(2,5-dichloro-4-((1-(4-cyclopropyl-1,2,3,4-tetrahydroquinoxaline-1-carbonyl)cyclopropylamino)methyl)phenyl)propanamide)]"
1.26 to 50.1,1.26 to 50.1,CC(C(=O)N1CCN(C2CC2)c2ccccc21)N1CCc2ccc(Cl)cc2C1 (stereo not drawn) [Example 244]
0.126 to 1,1.26 to 50.1,"CC(NCc1cc(Cl)ccc1Cl)C(=O)N1CCN(C2CC2)c2ccccc21 (stereo not drawn) [Example 7, 1-(4-cyclopropyl-3,4-dihydroquinoxalin-1(2H)-yl)-2-(2,5-dichlorobenzylamino)propan-1-one]"
1.26 to 50.1,1.26 to 50.1,O=C(NCCCc1cc(Cl)c(CNC2(C(=O)N3CCN(C4CC4)c4ccccc43)CC2)cc1Cl)NCCOCCOCCNC(=O)NCCCc1cc(Cl)c(CNC2(C(=O)N3CCN(C4CC4)c4ccccc43)CC2)cc1Cl [Example 212]
0.126 to 1,0.126 to 1,"CN(C[C@H](O)[C@@H](O)[C@H](O)[C@H](O)CO)C(=O)NCCCc1cc(Cl)c(CNC2(C(=O)N3CCN(C4CC4)c4ccccc43)CC2)cc1Cl [Example 93, 3-(3-(2,5-dichloro-4-((1-(4-cyclopropyl-1,2,3,4-tetrahydroquinoxaline-1-carbonyl)cyclopropylamino)methyl)phenyl)propyl)-1-methyl-1-((2S,3R,4R,5R)-2,3,4,5,6-pentahydroxyhexyl)urea]"
< 0.1,< 0.1,O=C(N1CCN(C2CC2)c2ccccc21)C1(NCc2cc(Cl)ccc2C(F)(F)F)CC1 [Example 254]
< 0.1,0.126 to 1,"O=C(N1CCN(C2CC2)c2ccccc21)C1(CSc2cc(Cl)ccc2Cl)CC1 [Example 180, (4-cyclopropyl-3,4-dihydroquinoxalin-1(2H)-yl)(1-((2,5-dichlorophenylthio)methyl)cyclopropyl)methanone]"
< 0.1,0.126 to 1,"O=C([C@@H]1CCCN1Cc1cc(C(F)(F)F)ccc1Cl)N1CCN(C2CC2)c2ccccc21 [Example 84, 1-[[(2S)-1-[[2-chloro-5-(trifluoromethyl)phenyl]methyl]pyrrolidin-2-yl]carbonyl]-4-cyclopropyl-1,2,3,4-tetrahydroquinoxaline]"
0.126 to 1,1.26 to 50.1,"O=C(O)CCc1ccc(Cl)c(CNC2(C(=O)N3CCN(C4CC4)c4ccccc43)CC2)c1 [Example 59, 3-(4-chloro-3-(((1-(4-cyclopropyl-1,2,3,4-tetrahydroquinoxaline-1-carbonyl)cyclopropyl)amino)methyl)phenyl)propanoic acid]"
1.26 to 50.1,1.26 to 50.1,O=C(N1CCN(C2CC2)c2ccccc21)C1(OCc2c(Cl)cccc2Cl)CC1 [Example 247]
0.126 to 1,1.26 to 50.1,"CN(C[C@H](O)[C@@H](O)[C@H](O)[C@H](O)CO)C(=O)CCc1cc(Cl)c(CN2CCC[C@H]2C(=O)N2CCN(C3CC3)c3ccccc32)cc1Cl [Example 48, 3-(2,5-dichloro-4-(((S)-2-(4-cyclopropyl-1,2,3,4-tetrahydroquinoxaline-1carbonyl)pyrrolidin-1-yl)methyl)phenyl)-N-methyl-N-((2S,3R,4R,5R)-2,3,4,5,6-pentahydroxyhexyl)propanamide]"
1.26 to 50.1,1.26 to 50.1,"O=C(CCc1ccc(Cl)c(CNC2(C(=O)N3CCN(C4CC4)c4ccccc43)CC2)c1)NC[C@H](O)[C@@H](O)[C@H](O)[C@H](O)CO [Example 70, 3-(4-chloro-3-(((1-(4-cyclopropyl-1,2,3,4-tetrahydroquinoxaline-1-carbonyl)cyclopropyl)amino)methyl)phenyl)-N-((2S,3R,4R,5R)-2,3,4,5,6-pentahydroxyhexyl)propanamide]"
0.126 to 1,0.126 to 1,"CN(C[C@H](O)[C@@H](O)[C@H](O)[C@H](O)CO)C(=O)CCc1cc(Cl)c(CNC2(C(=O)N3CCN(C4CC4)c4ccccc43)CC2)cc1Cl [Example 91, 3-(2,5-dichloro-4-((1-(4-cyclopropyl-1,2,3,4-tetrahydroquinoxaline-1-carbonyl)cyclopropylamino)methyl)phenyl)-N-methyl-N-((2S,3R,4R,5R)-2,3,4,5,6-pentahydroxyhexyl)propanamide]"
0.126 to 1,0.126 to 1,"O=C(N1CCN(C2CC2)c2ccccc21)C1(OCc2cc(Cl)ccc2C(F)(F)F)CC1 [Example 42, (1-(5-chloro-2-(trifluoromethyl)benzyloxy)cyclopropyl)(4-cyclopropyl-3,4-dihydroquinoxalin-1(2H)-yl)methanone]"
0.126 to 1,1.26 to 50.1,COc1ccc(COC2(C(=O)N3CCN(C4CC4)c4ccccc43)CC2)c(Cl)c1 [Example 246]
1.26 to 50.1,1.26 to 50.1,"CC(c1cc(Cl)ccc1Cl)N1CCC[C@H]1C(=O)N1CCN(C2CC2)c2ccccc21 (single isomer, unassigned) [Example 67]"
> 10,1.26 to 50.1,"O=C([C@@H]1CCCN1Cc1c(Cl)cccc1Cl)N1CCN(C2CC2)c2ccccc21 [Example 47, (S)(4-cyclopropyl-3,4-dihydroquinoxaline-1(2H)-yl)(1-(2,6-dichlorobenzyl)pyrrolidin-2-yl) methanone]"
< 0.1,0.126 to 1,CN(C(=O)C1(OCc2cc(Cl)c(CCCCNC(=O)NC[C@H](O)[C@@H](O)[C@H](O)[C@H](O)CO)cc2Cl)CC1)c1ccccc1OC1CC1 [Example 257]
0.126 to 1,1.26 to 50.1,CC(C(=O)N1CCN(C2CC2)c2ccccc21)N(C)Cc1cc(Cl)ccc1Cl (stereo not drawn) [Example 243]
0.126 to 1,1.26 to 50.1,"O=C(N1CCN(C2CC2)c2ccccc21)C1(OCc2cc(Cl)ccc2Cl)CCOCC1 [Example 79, 1-cyclopropyl-4-([4-[(2,5-dichlorophenyl)methoxy]oxan-4-yl]carbonyl)-1,2,3,4-tetrahydroquinoxaline]"
< 0.1,0.126 to 1,"O=C([C@@H]1CCCN1Cc1cc(Cl)ccc1C(F)(F)F)N1CCN(C2CC2)c2ccccc21 [Example 46, (S)-(1-(5-chloro-2-(trifluoromethyl)benzyl)pyrrolidin-2-yl)(4-cyclopropyl-3,4-dihydroquinoxaline-1(2H)-yl)methanone]"
1.26 to 50.1,–,O=C(C1SCCN1Cc1cc(Cl)ccc1Cl)N1CCN(C2CC2)c2ccccc21 (stereo not drawn) [Example 291]
1.26 to 50.1,–,O=C(NCCOCCOCCOCCNC(=O)c1ccc(COc2cc(Cl)c(CN3CSC[C@H]3C(=O)N3CCN(C4CC4)c4ccccc43)cc2Cl)cc1)c1ccc(COc2cc(Cl)c(CN3CSC[C@@H]3C(=O)N3CCN(C4CC4)c4ccccc43)cc2Cl)cc1 [Example 190]
0.126 to 1,–,CN(C[C@H](O)[C@@H](O)[C@H](O)[C@H](O)CO)C(=O)c1ccc(COc2cc(Cl)c(CN3CSC[C@H]3C(=O)N3CCN(C4CC4)c4ccccc43)cc2Cl)o1 [Example 203]
0.126 to 1,–,CN(C[C@H](O)[C@@H](O)[C@H](O)[C@H](O)CO)C(=O)c1cccc(OCc2cc(Cl)c(CN3CSC[C@H]3C(=O)N3CCN(C4CC4)c4ccccc43)cc2Cl)c1 [Example 230]

Structure (SMILES),EC50 (human TGR5) [µM],EC50 [1] [µM]
"CN(C(=O)C1(OCc2cc(Cl)ccc2Cl)CC1)c1ccccc1OC1CCC1 [Example 72, N-(2-cyclobutoxyphenyl)-1-(2,5-dichlorobenzyloxy)-N-methylcyclopropanecarboxamide]",< 0.1,< 0.1
